Results: patent publication US9770430B2, “Desferrioxamine-metal complexes for the treatment of immune-related disorders” (priority 2009, dated 2017)
Values joined by “and” are separate entries in the source; they are usually repeats but may differ in a detail not shown here. Equal values may be shown once.

Legend:
[1] = complex of desferrioxamine with the named metal ion; cited from earlier work
[2] = test system: high energy diet-induced Type II diabetes; test: Sand rat high energy diet Type II diabetes model, glucose tolerance test and cataract formation (Example 6); assay type: in vivo, sand rat (Psammomis obesus); details: for three hours response to an orally-administered glucose dose, value above the zero (standard diet Group I): 200 mg glucose per 100 g body weight, end of 53 day experiment, high energy diet; for Cataract formation: high energy diet (HE) sand rats, 53 days
Description: (§1) Sand rats (Psammomis Obesus) were used as a model for Type 2 diabetes. The sand rats transferred onto high energy diet develop a severe form of Type 2 diabetes, including high blood glucose level, increase in body weight, and cataract development (eye lens opacification).
(§2) The sand rats were divided into groups. The animals from the Group I received the standard diet, serving as a control, whereas animals from the other indicated groups received high energy diet, leading to diabetes development. The high-energy diet ed mice were either untreated, or treated with intra-peritoneal injections of 2.5 mg/kg body weight Ga-DFO, Zn-DFO, DFO alone, Zn, Ga or lipoic acid (LA), either twice or three times per week, as indicated, for the duration of the experiment. The blood glucose and body weight of the animals were monitored throughout the experiment.
Forty two sand rats were divided into seven groups, six animals in each. The animals from Group I received the standard diet and used as a control. The animals from the Groups II, III, IV, V, VI and VII received high energy diet, leading to diabetes development, while Groups III, IV and VII were treated with Zn-DFO, Ga-DFO and DFO alone, respectively. The Groups V and VI received Zn and Ga, in their chloride salt form, alone respectively. Administration of the different treatments was as described, and the experiment lasted for 53 days. Glucose tolerance test was performed at the end of experiment. The cataract formation was tested as well.

[3] = test system: high energy diet-induced Type II diabetes; test: Sand rat high energy diet Type II diabetes model, blood glucose and body weight (Example 5); assay type: in vivo, sand rat (Psammomis obesus)
Description: as §1, §2
The sand rats were divided into four groups (6 animals in each). Animals from Group I received the standard diet, serving as a control. The animals from the Groups II, III and W received high energy diet, leading to diabetes development, while Groups III and IV were treated with Ga-DFO and lipoic acid (LA), respectively. The intra-peritoneal injections of 2.5 mg Ga-DFO or LA per kg body weight were performed twice a week, for 61 days. The blood glucose and body weight of the animals were monitored during all the experiment.

[4] = pH limit of the complex solution during preparation (loss of biological activities); assay type: physicochemical; details: pH above 5.6; solution reacts with air-containing CO2
ovalbumin-induced asthma [5] = test: Ovalbumin-induced asthma, prophylactic treatment model (lung ferritin); assay type: in vivo, BALB/c mice; details: asthmatic mice, 1 and 0.3 mg/kg i.p., then 0.3 mg/kg i.n.
Protocol: Ferritin concentration was quantified using an indirect ‘sandwich’ ELISA assay in accordance with a procedure developed previously in our laboratory. Briefly, ELISA 96-well micro plates were pre-coated with goat anti-human L-ferritin antibody. Rabbit anti-human H-ferritin was used as the secondary antibody. Plates were treated with goat anti-rabbit IgG conjugated with β-galactosidase. Chlorophenol Red-β-D-Galactopyranoside was then added and the plates analyzed using a microplate reader with a test (570 nm) and reference (630 nm) filters.
• Twelve-week-old Balb/c mice were administered 10 μg (100 μl) ovalbumin (OVA) dissolved with 3 mg Al(OH)3 in 0.9% saline intraperitoneally (i.p.) on days 0, 7 and 14, and 10 μg (50 μl) OVA intranasally (i.n.) on days 20, 23, 25, 27, 29, 31, 34, 36, 37, 41, 43 and 45. […]
(§3) To estimate the anti-asthmatic effect of the complexes the following parameters were measured: the concentration of ferritin in the lungs, the presence of inflammatory cells infiltration into the lungs, and the amounts of macrophages, eosinophils, lymphocytes and neutrophils in bronchoalveolar lavages (BALs).

ovalbumin-induced asthma [6] = test: Ovalbumin-induced asthma, treatment of chronic asthma model (BAL cells, lung histology); assay type: in vivo, BALB/c mice; details: Mean ± SE
Protocol: • Twelve-week-old Balb/c mice were administered 10 μg (100 μl) ovalbumin (OVA) dissolved with 3 mg Al(OH)3 in 0.9% saline intraperitoneally (i.p.) on days 0, 7 and 14, and 10 μg (50 μl) OVA intranasally (i.n.) on days 20, 23, 25, 27, 29, 31, 34, 36, 37, 41, 43 and 45. For intranasal administration, mice were anesthetized with inhaled N-flurane and instilled with OVA i.n. with a micropipette. • Three-week-old BALB/c mice were sensitized (×3) with intra-peritoneal (i/p) injection (100 μl OVA solution, containing 0.3 mg OVA and 6.7 mg Al(OH)3, in 1 ml PBS) on days 0, 7 and 14. On days 14, 15, 17, 21 and 23 the mice were further sensitized with intranasal sprinklings (50 μl, each) of OVA in PBS solution containing 2 mg/ml OVA, as following: mice were anesthetized with inhaled N-flurane and instilled with OVA intra-nasally using a micropipette. Twenty-four hours after the last administration of OVA, the mice were sacrificed. Methacholine Challenge and Collection of Histologic Sections and Biochemical Samples
Either Zn-DFO, Ga-DFO, Zn-DFO and Ga-DFO 1:1 combination (herein metal complexes) or saline were administered as follows: on days −5, −1, 7 and 14, 1 mg/kg body weight metal complexes or saline were administered intraperitoneally (i.p.). On days 0, 6, 8, 13 and 15, 0.3 mg/kg body weight metal complexes or saline were administered i.p. On days 20, 23, 25, 27, 29, 31, 34, 36, 37, 41, 43 and 45, 0.3 mg/kg body weight metal complexes or saline were administered intranasally (i.n.). Twenty-four hours after the last sensitization, mice were anesthetized with urethane and the lungs were lavaged 4 times with 0.5 ml sterile PBS. Animals in the “control” group (non-asthmatic—saline treated, but not sensitized) (n=6) received saline injections and instillations, using the same regime as the asthmatic and treated animals. Animals of the “asthmatic” group (sensitized and saline-treated, rather than complex-treated) (n=6) received saline instead of the respective complex, under the same regime.
For the treatment of chronic asthma model, a similar experimental protocol was followed, with the following modifications: 1 mg/kg body weight metal complexes or saline were administered i.p. on day 0 (instead of days −5 and −1) and a further 0.3 mg/kg complexes or saline were administered on day 1. In this model, the effects of the complexes were investigated further by histological examination of lung sections stained with either haematoxylin-eosine or PAS/AB (periodic acid-Schiff/alcan blue).
as §3

[7] = Day 0, 2.5 mg/kg i.p. twice a week, mean, SD in the line below
[8] = Day 7, 2.5 mg/kg i.p. twice a week
[9] = Day 21, 2.5 mg/kg i.p. twice a week
[10] = Day 21, 2.5 mg/kg i.p. twice a week, 2.5 mg/kg
[11] = Day 32, 2.5 mg/kg i.p. twice a week
[12] = Day 42, 2.5 mg/kg i.p. twice a week
[13] = Day 49, 2.5 mg/kg i.p. twice a week
[14] = Day 56, 2.5 mg/kg i.p. twice a week
[15] = Day 61, 2.5 mg/kg i.p. twice a week
[16] = Day 61, 2.5 mg/kg i.p. twice a week, 2.5 mg/kg

For `CC(=O)N([O-])CCCCCNC(=O)CCC(=O)N([O-])CCCCCNC(=O)CCC(=O)N([O-])CCCCCN.[Fe+3]` [Fe(III), reference compound], the “relative stability constants for the complexes of desferrioxamine” value [1] is given as 10^31.
In the case of `[Cl-].[Cl-].[Zn+2]` [Zn, Zinc chloride], the “three hours response to an orally-administered glucose dose, value above the zero (standard diet Group I)” value (“three hours response” for short) [2] is reported as 38 mg/dL and the Cataract formation [2] is reported as 22%.
With `CC(=O)N(O)CCCCCNC(=O)CCC(=O)N(O)CCCCCNC(=O)CCC(=O)N(O)CCCCCN` [DFO, N′-{5-[acetyl(hydroxy)amino]pentyl}-N-[5-({4-[(5-aminopentyl)(hydroxy)amino]-4-oxobutanoyl}amino)pentyl]-N-hydroxy-succinamide] the “three hours response” value [2] was 150 mg/dL and the Cataract formation [2] was 25%.
With `O=C(O)CCCCC1CCSS1` (stereo not shown) [LA, Lipoic acid, reference compound] the Blood glucose level [3, 7] was 92.8 mg/dL, the Body weight [3, 7] was 113.4 g and the Blood glucose level [3, 8] was 97.4 mg/dL. For the same compound, the Body weight [3, 8] was 137.0 g, the Body weight [3, 9] was 160.4 g and the Blood glucose level [3, 10] was 259 ± 49 mg/dL and 259.4 mg/dL. It also gave a Blood glucose level [3, 11] of 176.4 mg/dL, a Body weight [3, 11] of 170.2 g and a Blood glucose level [3, 12] of 196.4 mg/dL. It also gave a Body weight [3, 12] of 189.2 g, a Blood glucose level [3, 13] of 185.2 mg/dL and a Body weight [3, 13] of 201.4 g. It also gave a Blood glucose level [3, 14] of 220.6 mg/dL, a Body weight [3, 14] of 211.8 g and a Body weight [3, 15] of 218.0 g. For the same compound, the Blood glucose level [3, 16] was 168 ± 33 mg/dL and 167.8 mg/dL.
In the case of `CC(=O)N([O-])CCCCCNC(=O)CCC(=O)N([O-])CCCCCNC(=O)CCC(=O)N([O-])CCCCCN.[Ga+3]` [Ga-DFO, gallium-desferrioxamine], the “effect of higher pH on the Ga-DFO solution” value [4] is reported as “marked loss of the biological activities”, the lung ferritin level (ovalbumin-induced asthma [5]) is reported as 0.5 ± 0.3 µg/mg and the “Eosinophils in BAL fluid” value (ovalbumin-induced asthma [6]) is reported as 0.2 ± 0.02^# 10^4 cells/ml. For the same compound, the “Lymphocytes in BAL fluid” value (ovalbumin-induced asthma [6]) was 0.3 ± 0.06^# 10^4 cells/ml, the “Macrophages in BAL fluid” value (ovalbumin-induced asthma [6]) was 3.3 ± 0.2^# 10^4 cells/ml and the “Neutrophils in BAL fluid” value (ovalbumin-induced asthma [6]) was 0.3 ± 0.07^# 10^4 cells/ml. The “Total WBC in BAL fluid” value (ovalbumin-induced asthma [6]) was 4.5 ± 0.6^# 10^4 cells/ml, the Blood glucose level [3, 7] was 91.8 mg/dL and the Body weight [3, 7] was 131.6 g. The Blood glucose level [3, 8] was 94.6 mg/dL, the Body weight [3, 8] was 154.0 g and the Body weight [3, 9] was 173.2 g. The Blood glucose level [3, 10] was 176 ± 46 mg/dL and 176.4 mg/dL, the Blood glucose level [3, 11] was 81.2 mg/dL and the Body weight [3, 11] was 180.4 g. The Blood glucose level [3, 12] was 89.0 mg/dL, the Body weight [3, 12] was 192.4 g and the Blood glucose level [3, 13] was 122.0 mg/dL. For the same compound, the Body weight [3, 13] was 204.0 g, the Blood glucose level [3, 14] was 129.2 mg/dL and the Body weight [3, 14] was 212.4 g. For the same compound, the Body weight [3, 15] was 214.4 g, the Blood glucose level [3, 16] was 98 ± 29 mg/dL and 97.8 mg/dL and the “three hours response” value [2] was 5 mg/dL. The Cataract formation [2] was 11% and the “relative stability constants for the complexes of desferrioxamine” value [1] was 10^28.
In the case of `[Cl-].[Cl-].[Cl-].[Ga+3]` [Ga, Gallium (III) chloride], the “three hours response” value [2] is reported as 25 mg/dL and the Cataract formation [2] is reported as 36%.
